Data published in PMC6272341, “Synthesis and Biological Evaluation of N-Alkoxyphenyl-3-hydroxynaphthalene-2-carboxanilides” (Molecules, 2015).
≈ marks a conversion by molar mass, not a printed value. Where two headings read alike, the source gives them in different places.

How the values were obtained:
S. aureus ATCC 29213 = assay: In vitro antibacterial susceptibility testing, broth dilution micro-method (MIC); conditions: Staphylococcus aureus, ATCC29213, 24 h, read-out: MIC SA
[1] = tested on: clinical isolate of M. avium subsp. paratuberculosis CIT03; assay: In vitro antimycobacterial evaluation, alamarBlue (MIC); type: cell-based; conditions: Mycobacterium avium, 264 h, read-out: MIC MAP
[2] = tested on: Chla-protein complexes of photosystem II in spinach chloroplasts; assay: Chlorophyll a fluorescence emission spectra in spinach chloroplasts; type: biochemical, spinach (Spinacia oleracea L.); conditions: 0, 102, 204, 408 and 612 μM; λex = 436 nm; band at 686 nm
From the text: The studied compounds affected chlorophyll a (Chla) fluorescence in spinach chloroplasts indicating their interactions with constituents of photosynthetic apparatus. […] The extent of perturbation of Chla-protein complexes in the thylakoid membrane is reflected in the sharpness of decreased fluorescence of Chla pigment. A similar decrease of Chla fluorescence in plant chloroplasts was also observed previously after treatment with ring-substituted 1-hydroxynaphthalene-2-carboxanilides, 2-hydroxynaphthalene-1-carboxanilides, 5-bromo- and 3,5-dibromo-2-hydroxy-N-phenyl-benzamides and ring-substituted 4-arylamino-7-chloroquinolinium chlorides.
The emission fluorescence spectra were recorded on a fluorescence spectrophotometer F-2000 (Hitachi, Tokyo, Japan) at room temperature (24 °C). The samples of chloroplast suspension (10 mg chlorophyll/L) with and without the studied inhibitor were excited at 436 nm, using an excitation slit 20 nm and emission slit 10 nm, and were kept in the dark for 2 min prior to the measurement. Due to low aqueous solubility the compounds were added to a chloroplast suspension in DMSO solution. The DMSO concentration in all samples was the same as in the control (10%).

[3] = tested on: photosynthetic electron transport in spinach chloroplasts; assay: Inhibition of photosynthetic electron transport (PET), DCPIP photoreduction (Hill reaction); type: biochemical, spinach (Spinacia oleracea L.)
Description: The PET inhibiting activity of the compounds was expressed by IC50 values. […] The aqueous solubility of the para-substituted compounds was limited; therefore IC50 values could not be determined due to precipitation of compounds during experiment. […]
Chloroplasts were prepared from spinach (Spinacia oleracea L.) according to Masarovicova and Kralova. The inhibition of photosynthetic electron transport (PET) in spinach chloroplasts was determined spectrophotometrically (Genesys 6, Thermo Scientific Corporation), using an artificial electron acceptor 2,6-dichlorophenol-indophenol (DCPIP) according to Kralova et al., and the rate of photosynthetic electron transport was monitored as a photoreduction of DCPIP. The measurements were carried out in phosphate buffer (20.0 mM, pH 7.2) containing sucrose (0.4 M), MgCl2 (5.0 mM) and NaCl (15.0 mM). The chlorophyll content was 30 mg/L in these experiments and the samples were irradiated (~100 W/m^2 with 10 cm distance) with a halogen lamp (250 W) using a 4 cm water filter to prevent warming of the samples (suspension temperature 22 °C). The studied compounds were dissolved in DMSO due to their limited aqueous solubility. The applied DMSO concentration (up to 4%) had negligible effect on the photochemical activity in isolated spinach chloroplasts (observed differences in DCPIP photoreduction due DMSO addition were within experimental error). The inhibitory efficiency of the studied compounds was expressed by IC50 values, i.e., by molar concentration of the compounds causing 50% decrease in DCPIP photoreduction relative to the untreated control. […] All reagents used in this study were of analytical grade and were purchased from Sigma.

[4] = tested on: methicillin-resistant S. aureus clinical isolate SA 630; assay: In vitro antibacterial susceptibility testing, broth dilution micro-method (MIC); conditions: 24 h; for MIC: Staphylococcus aureus, MRSA, read-out: MIC MRSA SA 630, clinical isolate MRSA SA 630, 37 °C, MH broth
[5] = tested on: M. tuberculosis H37Ra ATCC 25177; assay: In vitro antimycobacterial evaluation, alamarBlue (MIC); type: cell-based; conditions: Mycobacterium tuberculosis, 168 h, read-out: MIC MT
Description: The evaluation of the in vitro antimycobacterial activity of the compounds was performed against M. tuberculosis H37Ra ATCC 25177 [25] and clinical isolate of M. avium subsp. paratuberculosis CIT03 [26], see Table 1. The activity of compounds was expressed as the minimum inhibitory concentration (MIC) that is defined for mycobacteria as a 90% or greater (IC90) reduction of growth in comparison with the control. The MIC/IC90 value is routinely and widely used in bacterial assays, being a standard detection limit according to the Clinical and Laboratory Standards Institute.
Mycobacterium tuberculosis H37Ra ATCC 25177 and well characterised clinical isolate M. avium subsp. paratuberculosis CIT03 were grown in Middlebrook broth (MB), supplemented with Oleic-Albumin-Dextrose-Catalase supplement (Becton Dickinson, Oxford, UK) and mycobactin J (2 μg/mL). Identification of these isolates was performed using biochemical and molecular protocols. At log phase growth, a culture sample (10 mL) was centrifuged at 15,000 rpm/20 min using a bench top centrifuge (Model CR 4-12, Jouan Inc., Winchester, VA, USA). Following removal of the supernatant, the pellet was washed in fresh Middlebrook 7H9GC broth and re-suspended in fresh supplemented MB (10 mL). The turbidity was adjusted to match McFarland standard No. 1 (3 × 10^8 cfu) with MB broth. A further 1:20 dilution of the culture was then performed in MB broth. The antimicrobial susceptibility of all three mycobacterial species was investigated in a 96-well plate format. In these experiments, sterile deionised water (300 µL) was added to all outer-perimeter wells of the plates to minimize evaporation of the medium in the test wells during incubation. Sample wells were composed of 100 µL of test compound dilution and 100 µL of the bacterial stock being tested against. Dilutions of each compound were prepared in duplicate. For all synthesized compounds, final concentrations ranged from 1000 μg/mL to 8 μg/mL. All compounds were prepared in DMSO and subsequent dilutions were made in supplemented MB. The plates were sealed with parafilm and incubated at 37 °C, for 7 days in the case of M. tuberculosis and 11 days in the case of M. avium subsp. paratuberculosis. Following incubation, a 10% addition of alamarBlue (AbD Serotec, Kidlington, UK) was mixed into each well and readings at 570 nm and 600 nm were taken, initially for background subtraction and subsequently after 24 h re-incubation. The background subtraction is necessary for strongly coloured compounds, where the colour may interfere with the interpretation of any colour change. For non-interfering compounds, a blue colour in the well was interpreted as an absence of growth and a pink colour was scored as growth. […] The MIC value is routinely and widely used in bacterial assays and is a standard detection limit according to the Clinical and Laboratory Standards Institute (CLSI,). Rifampicin (Sigma-Aldrich) was used as the standard as it is clinically used antimycobacterial drugs.

[6] = tested on: methicillin-resistant S. aureus clinical isolate MRSA 63718; assay: In vitro antibacterial susceptibility testing, broth dilution micro-method (MIC); conditions: for MIC: Staphylococcus aureus, MRSA, read-out: MIC MRSA 63718, clinical isolate MRSA 63718
[7] = tested on: methicillin-resistant S. aureus clinical isolate SA 3202; assay: as above; conditions: 24 h; for MIC: Staphylococcus aureus, MRSA, read-out: MIC MRSA 3202, clinical isolate MRSA 3202, 37 °C, MH broth
[8] = tested on: human monocytic leukemia THP-1 cells; conditions: 24 h
[9] = tested on: M. tuberculosis H37Ra ATCC 25177; assay: MTT assay of mycobacterial viability; type: cell-based; conditions: Mycobacterium tuberculosis, 168 h; at the lowest tested concentration 8 µg/mL, ca. 24 µM; 7 days
Description: The MTT assay is a well-characterized method of assessing cell growth through measurement of respiration. For the purpose of this assay, an MTT measured viability of M. tuberculosis H37Ra of less than 70% after exposure to the MIC of each tested compound was considered a positive result.
For the MTT assay, the outer wells of a 96-well plate were filled with 200 µL of sterile water, and the inner wells were filled with 100 µL of the tested compound at the concentration to be examined. Compounds were prepared as previously stated and diluted in Middlebrook media to achieve the desired concentration. Mycobacterium tuberculosis H37Ra ATCC 25177 was suspended in ODAC supplemented Middlebrook broth at a MacFarland standard of 1.0 and then diluted through a 1:20, using Middlebrook broth as a diluent. The diluted mycobacteria (100 µL) were added to each well containing the compound to be tested. A negative growth control was composed of 100 µL of DMSO and 100 µL of media, and the diluted mycobacteria in broth absent of inhibiting compounds were used as a positive growth control. All compounds and controls were prepared in triplicate. Plates were incubated at 37 °C for 7 days. After the incubation period, 10% well volume of MTT reagent was mixed into each well and incubated at 37 °C for 24 h. The reagent and media were then aspirated from the wells, to which 50 µL 99% isopropanol was then added, and plates were read at 570 nm. The absorbance readings from the cells, grown in the presence of the tested compounds, were compared with uninhibited cell growth (using DMSO as the blank) to determine the relative percent viability. The percent viability was determined through the MTT assay. The percent viability is calculated through comparison of a measured value against that of the uninhibited control: %viability = OD570E/OD570P × 100, where OD570E is the reading from the compound-exposed cells, while OD570P is the reading from the uninhibited cells (positive control). Cytotoxic potential is determined by a percent viability of <70%.

[10] = M. tuberculosis H37Ra, 7 days, 37 °C, alamarBlue, MIC/IC90
[11] = M. avium subsp. paratuberculosis CIT03, 11 days, 37 °C, alamarBlue, MIC/IC90

Structure (SMILES) | MIC (S. aureus ATCC 29213) [µM] | MIC [1] [µM] | chlorophyll a fluorescence emission [2] | IC50 [3] [µM] | MIC [4] [µM] | MIC [5, 10] [µM] | MIC ([6]; 24 h, 24 h, 37 °C, MH broth) [µM] | MIC [7] [µM] | MIC [1, 11] [µM] | LD50 [8] [µM] | viability at 8 µg/mL [9] [%] | MIC [5] [µM] | MIC MRSA SA 630 ([4]; clinical isolate MRSA SA 630, 37 °C, MH broth) [µM] | activity fold higher than that of ampicillin ([6]; antibacterial activity against MRSA strains versus ampicillin) [fold] | MIC MRSA 63718 ([6]; clinical isolate MRSA 63718, 24 h, 37 °C, MH broth) [µM] | MIC MRSA 3202 ([7]; clinical isolate MRSA 3202, 37 °C, MH broth) [µM]
CCOc1cccc(NC(=O)c2cc3ccccc3cc2O)c1 [Compound 4b, N-(3-Ethoxyphenyl)-3-hydroxynaphthalene-2-carboxamide] | 832 (≈ 256 µg/mL) | 813 (≈ 250 µg/mL) | decreased intensity of the emission band at 686 nm | 4.5 | 832 (≈ 256 µg/mL) | 813 (≈ 250 µg/mL) | 832 (≈ 256 µg/mL) | 832 (≈ 256 µg/mL) |  |  |  |  |  |  |  | 
CC(C)Oc1ccccc1NC(=O)c1cc2ccccc2cc1O [Compound 7a, 3-Hydroxy-N-[2-(prop-2-yloxy)phenyl]naphthalene-2-carboxamide] | 796 (≈ 256 µg/mL) |  |  | 138 | 796 (≈ 256 µg/mL) | 389 (≈ 125 µg/mL) | 796 (≈ 256 µg/mL) | 796 (≈ 256 µg/mL) | 778 (≈ 250 µg/mL) | >30 |  |  |  |  |  | 
CC(C)Oc1cccc(NC(=O)c2cc3ccccc3cc2O)c1 [Compound 7b, 3-Hydroxy-N-[3-(prop-2-yloxy)phenyl]naphthalene-2-carboxamide] | 796 (≈ 256 µg/mL) |  |  | 6.9 | 796 (≈ 256 µg/mL) |  | 796 (≈ 256 µg/mL) | 796 (≈ 256 µg/mL) | 778 (≈ 250 µg/mL) |  | 10.7 | 24 (≈ 7.71 µg/mL) |  |  |  | 
CCC(C)Oc1ccccc1NC(=O)c1cc2ccccc2cc1O (stereo not drawn) [Compound 8a, N-[2-(But-2-yloxy)phenyl]-3-hydroxynaphthalene-2-carboxamide] | 5.9 (≈ 1.98 µg/mL) |  |  | 134 | 12 (≈ 4.02 µg/mL) | 23 (≈ 7.71 µg/mL) | 12 (≈ 4.02 µg/mL) | 12 (≈ 4.02 µg/mL) | 89 (≈ 29.9 µg/mL) |  | 23.9 |  | 11.9 (≈ 3.99 µg/mL) | ~4 | 11.9 (≈ 3.99 µg/mL) | 11.9 (≈ 3.99 µg/mL)
CCC(C)Oc1cccc(NC(=O)c2cc3ccccc3cc2O)c1 (stereo not drawn) [Compound 8b, N-[3-(But-2-yloxy)phenyl]-3-hydroxynaphthalene-2-carboxamide] | 763 (≈ 256 µg/mL) |  |  | 8.3 | 763 (≈ 256 µg/mL) | 23 (≈ 7.71 µg/mL) | 763 (≈ 256 µg/mL) | 763 (≈ 256 µg/mL) | 745 (≈ 250 µg/mL) | 2.7 ± 0.7 | 21.7 |  |  |  |  | 
